In brackets after ≈: the same amount, converted by molar mass.
Legend:
C. neoformans H99 = assay: Antifungal susceptibility testing, microbroth dilution MIC; type: cell-based; conditions: Cryptococcus neoformans, H99; C. neoformans wild-type strain; 48 h; read-out: MIC (μg/mL) against fungi H99
How it was run: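 CLSI microbroth dilution in RPMI1640, final drug range 0.0156–64 μg/mL. Inocula 1 × 10^3 CFU/mL for C. albicans and C. neoformans, 1 × 10^4 CFU/mL for A. fumigatus; 35°C for 24 h (C. albicans) or 48 h (C. neoformans, A. fumigatus). MIC read as visible growth inhibition versus control, in duplicate.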

[1] = Cytotoxicity testing (MTT); type: cell-based, human; conditions: human, 48 h, MTT
Method: (§1) h (for C. albicans, C. krusei, C. tropicalis, C. parapsilosis) or 48 h (for C. neoformans, A. fumigatus). The MIC was determined based on visible growth inhibition compared with the control. All experiments were performed in duplicate.
(§2) Cytotoxicity testing. The cell lines HK2 and 16HBE were used to evaluate the cytotoxicity of 19ak, 19k and 19t. Cells in DMEM containing 10% fetal bovine serum (Gibco) were seeded in 96-well tissue culture plates at a cell density of 1 × 10^4 cells/mL and incubated for 24 h to allow adhesion. The supernatant was then replaced with fresh DMEM containing various concentrations of 19ak, 19k and 19t. The plates were subsequently incubated for an additional 48 h at 37°C with 5% CO2, followed by the addition of 10 μL of MTT solution to each well and incubation at 37°C for 4 h.
(§3) The effects of the compounds on cell proliferation were detected by measuring the absorbance at 570 nm in a microplate reader (BioTek, VT, USA). Three independent experiments were conducted. […]

[2] = system: human bronchial epithelial cell line 16HBE; assay: Cytotoxicity testing (MTT); type: cell-based; conditions: ratio of IC50 against 16HBE to MIC80 against C. albicans SC5314
Method: as §1, §2, §3

[3] = system: human renal epithelial cell line HK2; assay: Cytotoxicity testing (MTT); type: cell-based; conditions: ratio of IC50 against HK2 to MIC80 against C. albicans SC5314
Method: as §1, §2, §3

C. albicans SC5314 = assay: Drug resistance study by serial passage; type: cell-based, Candida albicans; conditions: RPMI 1640 medium, 40-day period, passages at 0.5 × MIC

SMILES: C/C(=N\NC(=S)N(C)C)c1ccccn1 [Compound 19ak]
- MIC (C. neoformans H99): 0.5 µg/mL (≈ 2.25 µM)
- IC50 at 48 h ([1]; 16HBE cells (bronchial epithelial cell line), 16HBE cells): 6.97 µg/mL (≈ 31.4 µM)
- IC50 at 48 h ([1]; HK2 cells (renal epithelial cell line), HK2 cells): 26.8 µg/mL (≈ 121 µM)
- Selectivity index 16HBE [2]: 55.78
- Selectivity index HK2 [3]: 214.32
- Change of MIC after repeated exposure (C. albicans SC5314): did not alter the MIC
